Test results published in US20130045952A1, “ABA Receptor Agonists for Increased Plant Stress Resistance” (Van Andel Research Institute, priority 2011, published 2013).

How the values were obtained:
[1] = test system: PP2Cs HAB1, ABI1, and ABI2; assay: Phosphatase assays, PYR/PYL receptor-dependent inhibition of PP2Cs; assay type: biochemical
Procedure: (§1) To determine the biochemical basis of these observations, we used purified proteins of PYR1 and PYL1 to PYL6 to measure their interactions with three PP2Cs, HAB1, ABI1, and ABI2, in vitro. […] In phosphatase assays, pyrabactin promoted PYR1, PYL1, PYL3, PYL5, and PYL6, but not PYL2 and PYL4, to inhibit all three PP2Cs.
(§2) Mutant proteins were expressed as H6GST-fusion proteins and purified by glutathione sepharose chromatography. Protein-protein interactions were determined by luminescence proximity AlphaScreen assay. Biotinylated PP2C proteins for the luminescence proximity assay were generated by in vivo biotinylation of avitag-PP2C fusion proteins. PP2C phosphatase activity was measured by phosphate release from a SnRK2.6 phosphoprotein.
PP2Cs and PYR/PYL proteins were pre-incubated at the indicated concentrations in 50 mM imidazole, pH 7.2, 5 mM MgCl2, 0.1% β-mercaptoethanol and 0.5 mg/ml BSA for 30 min at room temperature. Reactions were started by addition of 100 μM of a phosphopeptide corresponding to amino acids 170-180 of SnRK2.6 (HSQPK^pSTVGTP). This peptide is phosphorylated at a single residue corresponding to Ser175 in SnRK2.6, whose phosphorylation is required for SnRK2.6 kinase activity^32. Phosphate release from ^pS175 from the phosphopeptide was determined by colorimetric assay (BioVision).

PYL1 I137V = target: T1, PYL1 I137V (Arabidopsis thaliana, UniProt Q8VZS8, I137V); assay: PP2C interaction of mutant PYL1 I137V receptors; assay type: biochemical; conditions: mutation of PYL1 I137 to valine; also in PYL1 A190V or V193I context
T1 construct: PYL1 (residues 36-211), PYL2 (residues 14-188), and HAB1 (residues 172-511) were prepared as recombinant proteins in E. coli; made in house; host or cells: E. coli (stated for PYL1 in general)
Procedure: One key question is why pyrabactin adopts different conformations between PYL1 and PYL2. The ligand binding pockets of PYL2 and PYL1 only differ in three residues (PYL2/PYL1: V114/1137, V166/A190, and V170/1194). […] In contrast, the V114/1137 change in PYL1 collides with the naphthalene ring of pyrabactin in the PYL2 conformation (C—C distance of 2.2 Å) and forces pyrabactin to flip by 180°. […] Due to the very weak pyrabactin agonist activity in wildtype PYL1, this change is most clearly seen in the context of two mutant PYL1 receptors, in which residues A190 and V193 from helix 3 were exchanged against larger side chains that stabilize the binding of pyrabactin.
as §2
(§3) Site-directed mutagenesis was carried out using the QuickChange method (Stratagene). Mutations and all plasmid constructs were confirmed by sequencing.

PYL2 A93F = target: T2, PYL2 A93F (Arabidopsis thaliana, UniProt O80992, A93F); assay: PP2C binding and phosphatase assays of mutant PYL2 A93F; assay type: biochemical
T2 construct: PYL2 (residues 14-188), and HAB1 (residues 172-511) were prepared as recombinant proteins in E. coli; made in house; host or cells: E. coli (stated for PYL2 in general)
Description: The closest distance between the pyridine ring of pyrabactin and the LPA gating residues is 4.8 Å-7.0 Å when the LPA loop assumes the ABA-bound closed conformation, but is 11-13 Å when the LPA gate is in open conformation. In contrast, the distance of the naphthalene double ring of pyrabactin or the cyclohexene ring of ABA to the three side chains of the LPA gate in the PYL1 structure is 3.4-4.6 Å, a range for strong Van der Waals interactions, thus helping to keep the LPA gate in the closed conformation. […] To validate this hypothesis, we changed the alanine in the LPA loop to a larger residue. […] As expected from structural modeling, replacement of the gate residue A93 with the bulky phenylalanine ring also abrogated ABA to promote PYL2 activation.
as §2, §3

[2] = target: T3, PYL6 / PP2Cs (HAB1, ABI1, ABI2) (Arabidopsis thaliana, UniProt Q8S8E3); assay: In vitro PYL6-PP2C interaction; assay type: biochemical; conditions: purified proteins in vitro
T3 construct: made in house; host or cells: not expressly stated for PYL6
T3 sequence (Q8S8E3 1-215): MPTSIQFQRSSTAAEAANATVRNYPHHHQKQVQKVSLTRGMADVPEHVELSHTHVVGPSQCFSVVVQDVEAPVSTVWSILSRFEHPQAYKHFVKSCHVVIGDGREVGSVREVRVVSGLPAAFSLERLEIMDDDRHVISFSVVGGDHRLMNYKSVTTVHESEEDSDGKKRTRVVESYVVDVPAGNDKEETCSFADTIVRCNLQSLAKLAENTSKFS
Procedure: as §1, §2
Interactions between PYR/PYL and PP2Cs were assessed by luminescence-proximity AlphaScreen technology (Perkin Elmer). Briefly, biotinylated PP2Cs were attached to streptavidin-coated donor beads, and H6-tagged PYR/PYL receptors were attached to nickel-chelated acceptor beads. The donor and acceptor beads were brought into proximity by the interactions between PYR/PYLs and PP2Cs, which were measured with and without ligands. When excited by a laser beam of 680 nm, the donor beam emits singlet oxygen that activates thioxene derivatives in the acceptor beads, which releases photons of 520-620 nm as the binding signal. […]

PYR1 = target: T4, PYR1 (Arabidopsis thaliana, UniProt O49686); conditions: in vivo; cited from earlier work
T4 sequence (O49686 1-191): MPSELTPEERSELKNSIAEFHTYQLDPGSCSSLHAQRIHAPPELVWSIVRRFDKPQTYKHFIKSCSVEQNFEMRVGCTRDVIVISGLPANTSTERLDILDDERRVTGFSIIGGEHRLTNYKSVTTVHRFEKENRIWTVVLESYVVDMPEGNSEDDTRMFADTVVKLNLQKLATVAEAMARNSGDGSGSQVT

T1 sequence (Q8VZS8 36-211 I137V): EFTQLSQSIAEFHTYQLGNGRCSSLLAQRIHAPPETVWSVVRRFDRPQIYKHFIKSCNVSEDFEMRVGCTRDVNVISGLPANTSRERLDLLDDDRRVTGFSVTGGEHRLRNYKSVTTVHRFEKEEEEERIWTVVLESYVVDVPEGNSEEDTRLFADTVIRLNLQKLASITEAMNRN
T2 sequence (O80992 14-188 A93F): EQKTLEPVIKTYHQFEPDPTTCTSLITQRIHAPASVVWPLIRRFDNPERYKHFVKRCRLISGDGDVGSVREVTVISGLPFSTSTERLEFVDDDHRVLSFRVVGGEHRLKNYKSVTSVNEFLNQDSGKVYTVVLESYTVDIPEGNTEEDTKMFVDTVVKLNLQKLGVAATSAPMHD

## O=S(=O)(NCc1ccccn1)c1ccc(Br)c2ccccc12 [Pyrabactin, pyrabactin]
[1]; high concentrations of pyrabactin, in the presence of ABA
  Effect on ABA-dependent inhibition of PP2Cs by PYL2: reversed
[1]; phosphatase assays, receptor PYL1
  Promotion of PYL1 to inhibit all three PP2Cs: promoted
[1]; phosphatase assays, receptor PYL2
  Promotion of PYL2 to inhibit all three PP2Cs: not and did not promote
[1]; phosphatase assays, receptor PYL3
  Promotion of PYL3 to inhibit all three PP2Cs: promoted
[1]; phosphatase assays, receptor PYL4
  Promotion of PYL4 to inhibit all three PP2Cs: not
[1]; phosphatase assays, receptor PYL5
  Promotion of PYL5 to inhibit all three PP2Cs: promoted
[1]; phosphatase assays, receptor PYL6
  Promotion of PYL6 to inhibit all three PP2Cs: promoted
[1]; phosphatase assays, receptor PYR1
  Promotion of PYR1 to inhibit all three PP2Cs: promoted
PYL1 I137V
  Response of mutant PYL1 I137V receptor: pyrabactin-inhibited receptor
PYL2 A93F
  Activation of mutant PYL2 A93F receptor: pyrabactin-activated receptor
[2]
  Promotion of PYL6 interaction with the three PP2Cs: promoted interaction
PYR1
  Activity at PYR1 in a seed germination assay: selective agonist
